{"source": "patent US20240067932A1", "about": "“METHODS AND COMPOSITIONS FOR GENERATING HEMOGENIC ENDOTHELIAL CELLS FROM PLURIPOTENT STEM CELLS” (Trailhead Biosystems Inc., priority 2022, published 2024)", "format_in_all_cases": "cell-based, human", "key": {"[1]": {"tested_on": "early mesoderm progenitors", "assay": "8-factor HD-DoE experiments optimized for maximum GATA2 expression (qPCR, partial least squares models)", "settings": "first model, FIG. 2; factors Forskolin, VEGF, FGF2, Albumax, SUN1162, Hydrocortisone, SB341542, Resveratrol; 3 days after stage 1", "from_the_text": "The early mesoderm progenitors were used for further differentiation along the endothelial lineage using a High-Dimensional Design of Experiments (HD-DoE) approach to simultaneously test multiple process inputs (e.g., small molecule agonists or antagonists) on output responses, such as gene expression. Based on predicted conditions that maximize expression of hemogenic endothelial enriched genes such as CD31, CD34, CD143, CD309, GATA2, Fill and RUNX1, vWF, a complex recipe was developed for generating differentiated hemogenic endothelial cells from the early mesoderm progenitors, composed of 8 agents as shown below in Table 1:\nFirst, undifferentiated iPSC were grown for 48 h in CDM2 media containing 6 uM CHIR99021 (referred to herein as stage 1). Then stage 2 media was engineered. The basis of this was an 8-factor HD-DoE experiment with focus on differentiation of cells toward the hemogenic endothelial lineage for an additional 3 days after termination of stage 1 treatment. To test the effectors, 48 different combinations of effectors generated using Design-of-Experiments compression through D-optimality were robotically prepared. The effector combinations were prepared in a basal media and were subsequently added to the cells, which were then allowed to differentiate. Three days later, RNA extraction was performed, and gene expression was obtained using quantitative PCR analysis. The data were normalized and modeled using partial least squares regression analysis to the effector design, resulting in the generation of gene-specific models, which after model tuning for maximal Q2 predictive power, provided explanation of the effectors ability to control the expression of individual genes, combinatorically, and individually. Solutions within the tested space could then be explored to address desirability. For stage 2, conditions were created inducing the expression of GATA2, a transcription factor identified as a master regulator of hematopoiesis. GATA2 promotes the generation of HECs and facilitates endothelial-to-hematopoietic transition (EHT). GATA2 also suppresses cardiac differentiation at the mesoderm stage, directing cells to a hematopoietic fate. Optimizing for maximal expression of GATA2 led to a robust solution. […] In this model, high levels of KDR, important receptor for VEGF signaling, were observed. […] This model was derived from initial testing of eight factors including: Forskolin, VEGF, FGF2, Albumax, SUN1162, Hydrocortisone, SB341542, and Resveratrol. […] Factors with low contribution were excluded."}, "[2]": {"tested_on": "early mesoderm progenitors", "assay": "Factor criticality / dynamic profile analysis of gene expression on removal of a finalized effector"}, "[3]": {"tested_on": "early mesoderm progenitors", "assay": "8-factor HD-DoE experiments optimized for maximum GATA2 expression (qPCR, partial least squares models)"}, "[4]": {"settings": "model FIG. 7, named factor removed, others kept"}, "[5]": {"settings": "model FIG. 9, named factor removed"}}, "data": [{"substance": "VEGF", "values": [{"measurement": "factor contribution (maximum expression of GATA2)", "setting": "[1]", "result": 46}, {"measurement": "expression level of GATA2", "setting": "[2]; model FIG. 7 (VEGF, Forskolin, FGF2), factor present", "result": 583}, {"measurement": "expression level of CD31", "setting": "[2]; model FIG. 7, factor present", "result": 879}, {"measurement": "expression level of CD34", "setting": "[2]; model FIG. 7, factor present", "result": 2350}, {"measurement": "expression level of CD44", "setting": "[2]; model FIG. 7, factor present", "result": 578}, {"measurement": "expression level of FLI1 (Fill [sic])", "setting": "[2]; model FIG. 7, factor present", "result": 3971}, {"measurement": "expression level of KDR", "setting": "[2]; model FIG. 7, factor present", "result": 33751}, {"measurement": "expression level of TAL1", "setting": "[2]; model FIG. 7, factor present", "result": 370}, {"measurement": "expression level of CD31", "setting": "[2]; [4]", "result": 2}, {"measurement": "expression level of CD34", "setting": "[2]; [4]", "result": 150}, {"measurement": "expression level of CD44", "setting": "[2]; [4]", "result": 349}, {"measurement": "expression level of FLI1 (Fill [sic])", "setting": "[2]; [4]", "result": 241}, {"measurement": "expression level of GATA2", "setting": "[2]; [4]", "result": 236}, {"measurement": "expression level of KDR", "setting": "[2]; [4]", "result": 16856}, {"measurement": "expression level of TAL1", "setting": "[2]; [4]", "result": 18}, {"measurement": "effect on expression of hemogenic endothelial genes analyzed (in words)", "setting": "[2]; model FIG. 8", "result": "critical for increasing the expression of all hemogenic endothelial genes analyzed"}, {"measurement": "expression level of CD31", "setting": "[2]; model FIG. 9, factor present", "result": 869}, {"measurement": "expression level of CD34", "setting": "[2]; model FIG. 9, factor present", "result": 2341}, {"measurement": "expression level of FLI1 (Fill [sic])", "setting": "[2]; model FIG. 9, factor present", "result": 2292}, {"measurement": "expression level of KDR", "setting": "[2]; model FIG. 9, factor present", "result": 7518}, {"measurement": "expression level of CD31", "setting": "[2]; [5]", "result": 262}, {"measurement": "expression level of CD34", "setting": "[2]; [5]", "result": 868}, {"measurement": "expression level of FLI1 (Fill [sic])", "setting": "[2]; [5]", "result": 974}, {"measurement": "expression level of KDR", "setting": "[2]; [5]", "result": 6209}, {"measurement": "effect on expression of hemogenic endothelial genes analyzed (in words)", "setting": "[2]; model FIG. 10", "result": "critical for expression of all hemogenic endothelial genes analyzed"}, {"measurement": "effect on expression of hemogenic endothelial genes analyzed (in words)", "setting": "[2]; model FIG. 11", "result": "critical for expression of all hemogenic endothelial genes analyzed"}, {"measurement": "effect towards GATA2 induction in 4 out of 5 models", "setting": "[3]; across models", "result": "strong positive effect towards GATA2 induction"}, {"measurement": "factor contribution (maximum expression of GATA2)", "setting": "[3]; fifth model, FIG. 6, factors VPA, SCF, BMP4, EFG, FLT3L, Arginine, Retinoic Acid, VEGF", "result": 22}, {"measurement": "factor contribution (maximum expression of GATA2)", "setting": "[3]; fourth model, FIG. 5, factors VEGF, FGF2, Sphingosine 1 phosphate, V11298, Pyrintegrin, Erythropoietin, L-ascorbic acid, XAV939", "result": 22}, {"measurement": "factor contribution (maximum expression of GATA2)", "setting": "[3]; second model, FIG. 3, factors CHIR, VEGF, FGF2, TTNBP, AGN194310, Y27632, Thymosin-β4, heparin", "result": 25}]}]}
